In US8791299B2, “Compounds for the inhibition of herpes viruses” (Universite Laval, priority 2009, dated 2014):
Like-named read-outs stand apart in the source and are kept apart here. One block for each compound: values may come before it.

Experiments:
HSV-1 = experiment: Plaque reduction assay (PRA), HSV-1 in Vero cells; format: cell-based, herpes simplex 1; details: for factor by which less active than ACV (IC50): representative wild-type HSV strains, PRA; for in vitro antiviral activity (concluding summary, words): HSV-1; for antiviral activity by PRA: wild-type HSV-1
Experimental: (§1) Top leading compounds were purchased from Sigma-Aldrich or ChemBridge for in vitro testing. On the day of the assay, compounds were prepared in DMSO at a concentration of 10 mM. Stock solutions were then diluted in Eagle's minimal essential medium (MEM) to the appropriate concentrations. ACV, GCV and FOS (prepared in MEM) were used as comparators for susceptible and resistant recombinant viruses and clinical isolates.
(§2) Antiviral activity of compounds 1 to 8 was first tested at two concentrations, i.e. 1 μM and 10 μM, along with currently-available first-line drugs (ACV for HSV/VZV and GCV for CMV). Then, 50% inhibitory concentration (IC50) values were determined for the top leading compounds in comparison with ACV, GCV and FOS using a standard plaque reduction assay (PRA). Briefly, Vero cells or HFFs seeded in 24-well plates were inoculated with 40 plaque forming units (PFUs) of recombinant viruses or clinical isolates. Infected cells were incubated with serial drug concentrations for appropriate periods of time. Cells were fixed and stained. The number of plaques was counted in each well and expressed in percentage of the PFUs in no-drug control wells. Recombinant and clinical viral strains were considered resistant to a drug if their IC50 values were at least 2.5 times greater than that of the representative wild-type strains.

HSV-2 = experiment: Plaque reduction assay (PRA), HSV-2 in Vero cells; format: cell-based, herpes simplex 2; details: for factor by which less active than ACV (IC50): representative wild-type HSV strains, PRA; for in vitro antiviral activity (concluding summary, words): HSV-2; for antiviral activity by PRA: wild-type HSV-2
Experimental: as §1, §2

[1] = Microsomal stability in rat liver microsomes; format: in vitro ADME; details: Sprague-Dawley; for half-life at 2 μM: rat liver microsomes 1 mg/ml, 2 μM compound, 37° C., NADPH, read-out: Half-life (t1/2); for CLint scaled at 2 μM: rat liver microsomes
Experimental: Sprague-Dawley rat liver microsomes (concentration 1 mg/ml) were incubated at 37° C. with 2 μM of compounds 2 or 3 in PBS containing 5 mM MgCl2 and 1 mM NADPH. The antihypertensive drug reserpine was used as a reference compound. Aliquots of 50 μl were withdrawn at different time intervals and placed in 96-well plates containing 50 μL of acetonitrile on ice. Samples were then mixed and centrifuged at 3000 rpm and 10 μL were injected in a liquid chromatography system (Agilent 1100 Binary Pumps). The aliquots from liquid chromatography were subjected to mass spectrometry analysis on SCIEX API4000 with TurboIonSpray ionization source to determine the remaining percentage of the parent compound. Intrinsic clearance (Clint) estimates were determined using the rate of parent compound disappearance. The slope (-k) was determined by linear regression analysis from the linear portion of the natural logarithm of the test compound concentration versus time plot. The […] (t1/2) was calculated according to k=ln 2/t1/2. The microsomal Clint can be derived from the equation Clint=kVfu (mL/min/mg protein) where fu is the unbound fraction and V is the volume of the incubation expressed in milliliters per mg of microsomal protein. As fu is not known for the tested compounds, the calculation was performed with fu=1 (V). The Clint was also extrapolated to the whole liver protein.

VZV = experiment: Plaque reduction assay (PRA), VZV in HFFs; format: cell-based, varicella zoster virus; details: for in vitro antiviral activity (concluding summary, words): VZV; for antiviral activity by PRA: ACV-resistant VZV strains
Experimental: as §1, §2

[2] = Parallel Artificial Membrane Permeability Assay (PAMPA); format: in vitro ADME; details: for Papp at 5 h: 5 h incubation, n=4, read-out: apparent permeability coefficient (Papp)
Experimental: Passive membrane permeability was determined using Parallel Artificial Membrane Permeability Assay (PAMPA). Initial concentrations of compounds 2 and 3 used for this assay were 37 and 2.5 respectively. Membrane area was 0.3 cm^2. After a 5 h incubation, fractions were taken on both sides of the membrane and compound concentrations were determined by LC-MS/MS. The apparent permeability coefficient (Papp) was calculated using the equation Papp=(dQ/dtAc0), where dQ/dt is the appearance rate of compound in the acceptor compartment, A is the surface area of the transwell membrane, and co is the initial concentration in the donor compartment.

Vero cells = experiment: MTS cell proliferation (cytotoxicity) assay on Vero cells; details: for therapeutic index (CC50/IC50): CC50 Vero cells, IC50 of the HSV-1 reference strain (H25); for toxicity (CC50) compared with ACV, GCV and FOS: Vero cells, MTS assay
Experimental: (§3) Human foreskin fibroblasts (HFFs) and African green monkey kidney cells (Vero) were grown in MEM supplemented with 10% fetal bovine serum. Cells were maintained at 37° C. in a humidified 5% CO2 atmosphere. Vero cells and HFFs were used for propagation of viral strains and susceptibility assays for HSV-1/HSV-2 and VZV/CMV, respectively. Clinical strains H25 (HSV-1), HSV22 (HSV-2) as well as laboratory strains KOS(HSV-1), Ellen (VZV) and AD169 (CMV) were used as wild-type susceptible reference isolates. Clinical strains C119629 (HSV-1), C114093 (HSV-1), C80249 (HSV-1), L920062 (HSV-1), MS2 (HSV-2), C75134 (HSV-2), W-940012 (HSV-2), C72984 (HSV-2), D-900180 (HSV-2), M-890546 (HSV-2), P-920056 (HSV-2) and GB2000VZV (VZV) as well as laboratory strains Xbaf (CMV) and VQA3 (CMV) were used as drug (ACV/GCV/FOS)— resistant isolates. All clinical strains starting with the letter C originated from the Quebec City clinical virology laboratory.
(§4) This assay is based on the use of solutions of a tetrazolium salt (3-(4,5-dimethylthiazol-2-yl)-5-(3-carboxymethoxyphenyl)-2-(4-sulphophenyl)-2H-tetrazolium, inner salt; MTS) and an electron coupling reagent (phenazine methosulfate; PMS). The tetrazolium salt is reduced by living cells to yield a formazan product that can be assayed colorimetrically. Briefly, HFFs and Vero cells were seeded in 96-well plates. After 24 h, media was aspirated and 100 μl of compounds diluted in MEM at concentrations up to 100 μM were added to wells in quaduplicate. After incubation at 37° C. for 3 days, 10 μl of a solution of MTS and PMS were added to each well. The plates were incubated at 37° C. for 2 h. The absorbance of the supernatant was read at a wavelength of 492 nm to measure cell viability compared to no-drug control wells. The drug concentration was plotted against the optical density of each sample and cellular toxicity (CC50) was calculated using GraphPad Prism version 5.0 (GraphPad Inc., La Jolla, Calif., USA).

[3] = system: Human foreskin fibroblasts (HFFs); experiment: MTS cell proliferation (cytotoxicity) assay on HFFs; details: for toxicity (CC50) compared with ACV, GCV and FOS: HFFs, MTS assay
Experimental: as §3, §4

CMV = experiment: Plaque reduction assay (PRA), CMV in HFFs; format: cell-based, cytomegalovirus; details: for antiviral activity by PRA: wild-type CMV isolate
Experimental: as §1, §2

[4] = fu=1, read-out: intrinsic clearance (Clint) extrapolated to whole rat liver

Compound: COc1ccc(O)c(C=NNC(=O)CNC(=O)c2cccc3ccccc23)c1 [Compound 9, N-(2-(2-(2-hydroxy-5-methoxybenzylidene)hydrazino)-2-oxoethyl)-1-naphthamide]
factor by which less active than ACV (IC50) (HSV-1): 3 to 4 fold
factor by which less active than ACV (IC50) (HSV-2): 3 to 4 fold

Compound: O=C(CNC(=O)c1cccc2ccccc12)N/N=C/c1ccccc1O [Compound 2, N-{2-[(2E)-2-(2-hydroxybenzylidene)hydrazinyl]-2-oxoethyl}naphthalene-1-carboxamide]
half-life at 2 μM [1]: 33 min
CLint scaled at 2 μM [1, 4]: 37 mL/min/kg
in vitro antiviral activity (concluding summary, words) (VZV): highly active
factor by which less active than ACV (IC50) (VZV; representative wild-type VZV strain, PRA): 2 to 3 fold
permeability class [2]: high (high (Papp>10))
Papp at 5 h [2]: 11.3 ± 1.17 ×10⁻⁶ cm/s
therapeutic index (CC50/IC50) (Vero cells): 19.3
toxicity (CC50) compared with ACV, GCV and FOS (Vero cells): somewhat more toxic
toxicity (CC50) compared with ACV, GCV and FOS [3]: somewhat more toxic
IC50 value increases compared to the representative wild-type strains (HSV-1; ACV- and/or FOS-resistant HSV-1 strains, Vero cells): 0.7 to 1.7 fold
in vitro antiviral activity (concluding summary, words) (HSV-1): highly active
factor by which less active than ACV (IC50) (HSV-1): 2 to 3 fold
IC50 value increases compared to the representative wild-type strains (HSV-2; ACV- and/or FOS-resistant HSV-2 strains, Vero cells): 0.7 to 1.7 fold
in vitro antiviral activity (concluding summary, words) (HSV-2): highly active
factor by which less active than ACV (IC50) (HSV-2): 2 to 3 fold

Compound: 3-chloro-N-(2-{2-[(E)-2-(1-hydroxynaphthalen-2-yl)ethenyl]hydrazinyl}-2-oxoethyl)benzamide [Compound C3-2]
antiviral activity by PRA (CMV): not active
antiviral activity by PRA (VZV): not active
antiviral activity by PRA (HSV-1): not active
antiviral activity by PRA (HSV-2): not active

Compound: C=CCc1cccc(/C=N/NC(=O)CNC(=O)c2cccc(Cl)c2)c1O [Compound 3, 3-chloro-N-(2-{(2E)-2-[2-hydroxy-3-(prop-2-en-1-yl)benzylidene]hydrazinyl}-2-oxoethyl)benzamide]
half-life at 2 μM [1]: 22 min
CLint scaled at 2 μM [1, 4]: 62 mL/min/kg
in vitro antiviral activity (concluding summary, words) (CMV; CMV): highly active
factor by which less active than GCV (IC50) (CMV; CMV reference strain, PRA): 2 fold
IC50 value increases compared to the representative wild-type strain (CMV; GCV- and/or FOS-resistant CMV strains, HFF cells): 1 to 2 fold
permeability class [2]: intermediate (intermediate (1<Papp<10))
Papp at 5 h [2]: 3.4 ± 0.45 ×10⁻⁶ cm/s
toxicity (CC50) compared with ACV, GCV and FOS (Vero cells): somewhat more toxic
therapeutic index (CC50/IC50) ([3]; CC50 HFFs, IC50 of the CMV reference strain (AD169)): 6.6
toxicity (CC50) compared with ACV, GCV and FOS [3]: somewhat more toxic

Compound: O=C(CNC(=O)c1cccc2ccccc12)N/N=C/c1ncccc1O [Compound C2.11, N-(2-{(2E)-2-[(3-hydroxypyridin-2-yl)methylidene)hydrazinyl}-2-oxoethyl)naphthalene-1-carboxamide]
antiviral activity by PRA (CMV): not active
antiviral activity by PRA (VZV): active
antiviral activity by PRA (HSV-1): not against HSV-1
antiviral activity by PRA (HSV-2): active

half-life at 2 μM [1]: 43 min
CLint scaled at 2 μM ([1]; reference compound, read-out: intrinsic clearance (Clint)): 28 mL/min/kg
Compound: COC(=O)[C@H]1[C@H]2C[C@@H]3c4[nH]c5cc(OC)ccc5c4CCN3C[C@H]2C[C@@H](OC(=O)c2cc(OC)c(OC)c(OC)c2)[C@@H]1OC [reserpine, reference compound]

Compound: O=C(CNC(=O)c1cccc2ccccc12)N/N=C/c1ccc(F)cc1O [Compound C2.20, N-{2-[(2E)-2-(4-fluoro-2-hydroxybenzylidene)hydrazinyl]-2-oxoethyl}naphthalene-1-carboxamide]
antiviral activity by PRA (CMV): not active
antiviral activity by PRA (VZV): as active
in vitro antiviral activity (concluding summary, words) (VZV): retained excellent activity
therapeutic index (CC50/IC50) (Vero cells): 9.6
in vitro antiviral activity (concluding summary, words) (HSV-1): retained excellent activity
antiviral activity by PRA (HSV-1): as active
in vitro antiviral activity (concluding summary, words) (HSV-2): retained excellent activity
antiviral activity by PRA (HSV-2): as active

Compound: Cc1cccc(/C=C/NNC(=O)CNC(=O)c2cccc(Cl)c2)c1O [Compound C3-1, 3-chloro-N-(2-{2-[(E)-2-(2-hydroxy-3-methylphenyl)ethenyl]hydrazinyl}-2-oxoethyl)benzamide]
antiviral activity by PRA (CMV): not active
antiviral activity by PRA (VZV): not active
antiviral activity by PRA (HSV-1): not active
antiviral activity by PRA (HSV-2): not active

Compound: O=C(CNC(=O)c1cccc2ccccc12)N/N=C/c1c(O)cccc1O [Compound C2.05, N-{2-[(2E)-2-(2,6-dihydroxybenzylidene)hydrazinyl]-2-oxoethyl}naphthalene-1-carboxamide]
antiviral activity by PRA (CMV): not active
antiviral activity by PRA (VZV): active against wild-type HSV-2 only
antiviral activity by PRA (HSV-1): active against wild-type HSV-2 only
antiviral activity by PRA (HSV-2): active
